Data: patent publication US20060135587A1, “Method and compounds for promoting healing and reducing inflammation” (priority 2002, published 2006)
Where two headings read alike, the source gives them in different places.

Legend:
[1] = system: white male mice
Procedure: The acute toxicity of 1,3-dialkyl-4,5-bis (N-methylcarbamoyl)imidazolium salts was assessed following intraperitoneal injection into 200 white male mice weighing 18 to 20 g. Dead animals were counted daily after the administration of the test substance.

[2] = system: acute Con A-induced inflammation; assay: Acute Con A-induced inflammation (paw oedema) in mice; type: in vivo; conditions: Table 3, male CBA mice
Procedure: Saline solution was similarly administered to the control animals. There were 10 mice in each group. After one hour, con A at a dose of 100 mkg/20 g of body weight was administered by sub-plantar injection into the plantar aponeurosis of the left paws of mice of both the experimental and control groups. The same amount of saline splution was injected into the contralateral paws. After one hour, the mice were killed and the experimental and control paws were weighed to assess the reaction index of the inflammation in the ankle-joint (Liubimov et al, 1999).
The anti-inflammatory effect of Compound 2 and Compound 7 was compared in male mice weighing 18-22 g, using the model described in Example 9. The ED50, i.e. the dose reducing paw ooedema by 50% one hour after injection of Concanavalin A, was calculated.

[3] = system: cryogenic ulcer of the gastric mucosa; assay: Cryogenic gastric ulcer in rats; type: in vivo; conditions: healing effect over the course of 14 days; twice daily, oral
Procedure: (§1) The models used gastric ulcers induced by
c) Ulcer created by local wounding with a cryogenic probe using a method similar to that described above for mouth ulcers.
(§2) The compounds were administered intraperitoneally at a dose of 20 mg/kg; in the cryogenic ulcer model compound 2 was administered either intraperitoneally (10 mg/kg) or orally (20 mg/kg twice daily, ie. a total of 40 mg/kg/day) and was compared to orally-administered gastrocepin (1 mg/kg twice daily, ie. a total of 2 mg/kg/day).

[4] = system: lesions of the gastric mucosa; assay: Gastric lesions induced by immobilization and hypothermia; type: in vivo, rats; set-up: % reduction of degree of ulceration / % reduction of ulcerated area: concentration or dose not given beside the values; conditions: Protective effect, 30 minutes before the test
Procedure: as §1
b) Immobilization and hypothermia (induced by water cooling);
as §2

[5] = system: lesions of the gastric mucosa; assay: Gastric lesions induced by electrostimulation of immobilised rats; type: in vivo
Procedure: as §1
a) Electrostimulation of immobilised rats for 3 hours;
as §2

[6] = system: gastric secretory function; assay: Gastric secretory function, chronic or acute tests; type: in vivo; conditions: dogs or rats
[7] = system: liver after partial hepatectomy; assay: Morphological study of the liver after partial hepatectomy; type: in vivo, rats; conditions: 0.2 MM/kg; one week after hepatectomy
Procedure: Morphological methods are highly informative in the assessment of repair processes. Histological tests of the liver after partial hepatectomy were performed using generally accepted methods. Microscopic sections were stained with hematoxylin and eosin using Van Gieson's methodology. Liver tests after partial hepatectomy were performed on 8 groups of animals, totalling 37 rats. All animals were examined one week after hepatectomy.

[8] = system: regeneration of liver after partial hepatectomy; assay: Liver regeneration after partial hepatectomy in rats; type: in vivo; conditions: for Catalase E activity / DNA content (in mg/g of tissue) / Protein content / RNA content (mg/g of tissue) / SOD activity: 0.2 mM/kg; for Level of recovery: 0.2 mM/kg intraperitoneally, 7 days, hepatectomy alone = 100
Procedure: Partial hepatectomy was performed using the conventional method (Higgins and Anderson, 1931) by removing the left lateral and central lobes of the liver from 80 male white rats, weighing 180-200 g.
Compound 2, Compound 4, Compound 5 or Compound 6 was administered to the experimental groups intraperitoneally in equimolar doses of 0.1 mM/kg and 0.2 mM/kg. These optimal doses were determined in preliminary experiments. The control group received intraperitoneal injections of saline solution. The compounds were administered on the day after the operation and then one injection was given daily over the course of 7 days, since maximum growth of the liver mass in rats is observed in the first 7 days after partial hepatectomy (Solopaev, 1980).
The effectiveness of the compounds was compared to that of a combination of non-steroid anabolic regeneration stimulators which are used in the treatment of liver pathology, namely Riboxin and potassium orotate at a dose of 0.2 mM/kg each (Rychnev and Frolov, 1984).
For quantitative evaluation of the regeneration process in the liver the coefficient of regeneration completion as determined by the formula below was used: [formula] where
Stimulation of the regeneration of tissue after hepatectomy in response to different medicinal preparations is associated with an increase in the synthesis of nucleic acids, as indicated by the increase in the content of RNA and DNA in the regenerated tissue. Quantitative analysis of DNA and RNA was performed by centrifugation. […] The enzymic component of anti-oxidant protection was also assessed on the basis of the activity of catalase and superoxidedismutase (SOD).
5 ml of […] of HCIO4 solution were added to the sample (100 mg). In order to ensure complete sedimentation of the acid-insoluble fraction, the beakers were put in ice for 15 minutes. Then they were centrifuged for 10 minutes at 5000 revolutions per minute. The sediment was washed twice with 0.2 M HCIO4. After the final centrifugation, the walls of the beaker were carefully dried with gauze and filter paper. The sediment was ground down with a glass pestle, suspended in 1 ml of water and then 1 ml of 0.6 M KON solution was added at room temperature. Hydrolysis was performed over the course of 1 hour at 37° C., then the beakers were put in ice to stop the hydrolysis process. 4 ml of the 0.6 M solution were added to each beaker and the beakers were left in ice for another 15 minutes, then centrifuged for 15 minutes at 5000 revolutions per minute. The supernatant was used to determine the RNA by UV absorption at 260 nm and 290 nm compared to the control sample containing 0.4M of HCIO4). The amount of RNA in μg per 1 ml of the supernatant was calculated using the following formula: [formula] where C=is the RNA concentration (μg/ml)
DNA analysis was carried out on the sediment remaining after the alkaline hydrolysis used to determine RNA. 0.5 M of HCIO4 (5 ml per sample) was poured into the dried beaker containing the sediment. Hydrolysis was performed in a boiling water bath for 20 minutes. The amount of DNA in μg per 1 ml of the hydrolysate was calculated using the following formula: [formula] where C=is the DNA concentration (μg/ml). Catalase Activity
Catalase activity was determined using the permanganate method. The optimal amount of the substrate (3 ml of 1% H2O2) and 1 ml of the enzyme were added to 10 ml of phosphate buffer, pH 7.8. After 10 minutes the reaction was stopped by adding 1.5 ml of H2SO4 (50%). The remaining hydrogen peroxide was filtered with 0.1M of KMnO4 solution. Catalase activity was calculated on the basis that 1 ml of 0.1M of KMnO4 solution corresponds to […] of H2O2.
SOD activity was determined using the dianisidine method, which is based on the fact that under ultraviolet irradiation Riboflavin (Rb) is converted to an excited (ionised) state and therefore becomes able to attack reduced dianisidine (DH2). […]

[9] = system: cryogenic injuries of the sigmoid colon; assay: Cryogenic damage of the colon, model of ulcerative colitis; type: in vivo, rats; conditions: oral
Procedure: A model of cryogenic damage of the colon was used in this experiment to simulate ulcerative colitis. Cryogenic injuries of the sigmoid colon of rats were induced by pressing a metal rod of […] in diameter cooled in liquid nitrogen to the serous membrane of the colon for 10 seconds under ether anaesthesia.
Tests were performed on 67 male rats weighing 180-200 g, with 8 animals in each group. Animals were kept in separate cages, with normal food and water ad libitum. The test compounds were administered orally on the second day after the operation, and then daily until healing was complete. Compound 2 or Compound 6 was administered to test animals at a dose of 20-50 mg/kg. The following agents were used for comparison:
The nature of the healing of the ulcer injury was examined morphologically on days 1, 3 and 7. […] The inflammatory process extends beyond the injured area into the adjacent areas, and beyond the peritoneum into fatty connective tissue.

[10] = system: experimental granuloma; assay: Cotton-wool granuloma (chronic proliferative inflammation) in rats; type: in vivo
Procedure: We investigated the ability of compound (2) to reduce the formation of granulation tissue in the inflammatory focus which develops at the site at which a non-sterile cotton-wool roll weighing 40 mg is implanted subcutaneously (Swingle and Shideman, 1972). Compound (2) was administered orally to male rats weighing 130-150 g at a dose of 100 mg/kg for 6 days before the cotton-wool roll was implanted, and then for 6 days at the same dose while the granuloma developed. Anti-inflammatory agents, such as ibuprofen and butadione, were used for comparison, using the same procedure. There were 10 rats in each group.
After 12 days the experiment was terminated, and the granulomas were excised, weighed, and the wet weight of the granulation tissue was measured. The dry mass of the granuloma was measured after drying for 24 hours at 70° C., and the exudative and proliferative stages of the granulomas were calculated. Statistical analysis was performed using the Student's parametric test.

[11] = oral dose used for the comparative medication; cited from earlier work
[12] = system: carrageenin-induced inflammation; assay: Carrageenin-induced inflammation in intact and adrenalectomized rats; type: in vivo
Procedure: An acute inflammatory oedema was induced in intact and adrenalectomized male rats weighing 180-200 g by sub-plantar injection of 0.1 ml of 1% carrageenin solution into the left paw (Winter et al., 1962). The same volume of saline solution was injected into the contralateral paw. […] There were 10 rats in each group.
The degree of carrageenin-induced inflammation of the ankle joints was assessed at 3 hours after the induction of the inflammation, on the basis of the change in weight of the experimental and control paws (reaction index).

[13] = 50 mg/kg intra-peritoneally one hour before Con A
[14] = Healing effect over the course of 3 days
[15] = Protective effect, 30 minutes before the test
[16] = Adrenalectomized animals, 48 mg/kg orally 4 days + carrageenin

## 1,3-diethyl-4,5-bis(N-methylcarbamoyl)-imidazolium benzenesulfonate [Compound 3]
[1]
  LD50: over 500 mg/kg
  toxicity: very low toxicity
[1]; intraperitoneal injection, white male mice, 14 days observation
  LD50: 1292 mg/kg
[2]; 10 mg/kg intra-peritoneally one hour before Con A
  Reaction index (%): 9.5 ± 2.5 %
[2]; [13]
  Reaction index (%): 9.5 ± 2.0 %
[3]
  % reduction of degree of ulceration: 59%
  Average number of lesions per animal: 7.7 ± 2.5
[4]
  % reduction of degree of ulceration: 41%
  % reduction of ulcerated area: 41%
  Area of lesion: 7.2 ± 2.0
[4]; 20 mg/kg intraperitoneally
  Average number of lesions per animal: 6.8 ± 1.4
[5]; [14]
  % reduction of degree of ulceration: 26.5%
  Average number of lesions per animal: 2.5 ± 0.4
[5]; [15]
  % reduction of degree of ulceration: 50%
  % reduction of ulcerated area: 54%
  Area of lesion: 7.1 ± 4.1
[5]; Protective effect, 30 minutes before the test, 20 mg/kg intraperitoneally
  Average number of lesions per animal: 3.5 ± 0.4
[6]
  effect on gastric secretory function: did not affect gastric secretory function

## 1-methyl-3-ethyl-4,5-bis(N-methylcarbamoyl)-imidazolium salicylate [Compound 6]
[7]
  histological findings in the liver: showed no undesirable effects
[8]
  Catalase E activity: 20.0 ± 2.7 μgM/min/g tissue × 1000
  DNA content (in mg/g of tissue): 3.88 ± 0.17 mg/g of tissue
  Protein content: 93.0 ± 14.0 Mg/g tissue
  RNA content (mg/g of tissue): 7.41 ± 0.16 mg/g of tissue
  SOD activity: 100.0 ± 4.7 Units/g tissue
  Level of recovery: 105.0
[9]
  indicators of healing relative to Compound 2: less pronounced

## CCCCC1C(=O)N(c2ccccc2)N(c2ccccc2)C1=O [Butadione]
[10]; 60 mg/kg
  Granuloma weight (mg) Dry weight: 145.4 ± 7.45 mg
  Granuloma weight (mg) Exudative stage: 682.6 mg
  Granuloma weight (mg) Fresh weight: 828.0 ± 76.68 mg
  Granuloma weight (mg) Proliferative stages: 105.4 mg
[11]
  ED50 values from the literature: 60 mg/kg

## CC[n+]1cn(C)c(C(=O)NC)c1C(=O)NC.O=C([O-])c1ccccc1 [Compound 5, 1-methyl-3-ethyl-4,5-bis(N-methylcarbamoyl)-imidazolium benzoate]
[7]
  histological findings in the liver: some of the animals demonstrated hepatocyte hypertrophy combined with subacute hepatitis
[2]; [13]
  Reaction index (%): 7.2 ± 1.8 %
[8]
  Catalase E activity: 17.3 ± 2.6 μgM/min/g tissue × 1000
  DNA content (in mg/g of tissue): 3.76 ± 0.29 mg/g of tissue
  Protein content: 86.8 ± 6.9 Mg/g tissue
  RNA content (mg/g of tissue): 7.46 ± 0.14 mg/g of tissue
  SOD activity: 103.0 ± 4.4 Units/g tissue
  Level of recovery: 120.3

## CC(C)Cc1ccc(C(C)C(=O)O)cc1 (stereo not drawn) [Ibuprofen, ibuprofen]
[10]; 48 mg/kg
  Granuloma weight (mg) Dry weight: 143.2 ± 9.83 mg
  Granuloma weight (mg) Exudative stage: 670.8 mg
  Granuloma weight (mg) Fresh weight: 814.0 ± 63.72 mg
  Granuloma weight (mg) Proliferative stages: 103.2 mg
[11]
  ED50 values from the literature: 48 mg/kg
[12]; 48 mg/kg 4 days + carrageenin
  Inhibition of oedema(%): 63.39%
  Reaction index (%): 15.88 ± 1.88 %
[12]; [16]
  Inhibition of oedema(%): 57.90%
  Reaction index (%): 18.12 ± 1.82 %
